Data: patent publication US3960877A, “N-monosubstituted-2,3-pyridinedicarboxamides, and related compounds” (priority 1974, dated 1976)

Experiments:
Format in all cases: in vivo
[1] = test system: undesirable plants of both the monocotyledonous and the dicotyledonous species; assay: Herbicidal activity, general; details: for herbicidal activity: 16 pounds per acre
Description: All of the 3-substituted compounds of the pyrido [3,2-d]pyrimidine-2,4(1H,3H)-dione and lumazine families made from intermediate amides produced by the method of this invention have an unexpectedly high order of herbicidal activity.
In using the compound, seeds of the types of plants set forth in Table II were sown in fresh soil. In the preemergence test the soil was sprayed with a solution of the test compound immediately after the seeds were planted, and before any noticeable growth developed. The solution was about a 2 percent by weight solution of the compound in acetone and/or alcohol. The compound was applied at the rate of 16 pounds per acre of soil surface.
Approximately 3 weeks after spray application, the herbicidal activity of the compound was determined by visual observation of the treated area in comparison with untreated control areas. These observations are reported below in Table II wherein the average activity rating is reported as the percent control of plant growth.
In the postemergence test the soil and developing plants were sprayed approximately 2 weeks after the seeds were sown. The compound was applied at the rate of 8 pounds per acre from about a 2 percent by weight solution of the test compound in acetone and/or alcohol. The postemergence herbicidal activity was measured in the same way as the preemergence activity; i.e. visual observation approximately 11 days after spraying, and expressed as the percent control of plant growth.

Cucumber [2] = assay: Preemergence herbicidal activity, % control of plant growth; details: Cucumis sativus, pre-emergence, 504 h, 16 lb/acre, about 3 weeks
In short: (§1)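 A roughly 2% w/w solution in acetone and/or alcohol is sprayed at 16 lb/acre onto soil directly after seeds are sown, prior to emergence. Around three weeks on, activity is rated visually against untreated areas and given as average percent control.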

Cheatgrass [3] = assay: as above; details: Bromus tectorum, pre-emergence, 504 h, 16 lb/acre, about 3 weeks
In short: as §1

Curled Dock [4] = assay: as above; details: pre-emergence, 504 h, 16 lb/acre, about 3 weeks
In short: as §1

Alfalfa [5] = assay: as above; details: Medicago sativa, pre-emergence, 504 h, 16 lb/acre, about 3 weeks
In short: as §1

Yellow Rocket [6] = assay: as above; details: pre-emergence, 504 h, 16 lb/acre, about 3 weeks
In short: as §1

Barnyard Grass [7] = assay: as above; details: Echinochloa crus-galli, pre-emergence, 504 h; barnyard grass; 16 lb/acre; about 3 weeks
In short: as §1

Lambsquarters [8] = assay: as above; details: Chenopodium album, pre-emergence, 504 h, 16 lb/acre, about 3 weeks
In short: as §1

Nutgrass [9] = assay: as above; details: pre-emergence, 504 h, 16 lb/acre, about 3 weeks
In short: as §1

Wild Oats [10] = assay: as above; details: Avena fatua, pre-emergence, 504 h, 16 lb/acre, about 3 weeks
In short: as §1

Foxtail [11] = assay: as above; details: Setaria, pre-emergence, 504 h, 16 lb/acre, about 3 weeks
In short: as §1

Pigweed [12] = assay: as above; details: Amaranthus retroflexus, pre-emergence, 504 h, 16 lb/acre, about 3 weeks
In short: as §1

Snapbeans [13] = assay: as above; details: pre-emergence, 504 h, 16 lb/acre, about 3 weeks
In short: as §1

Chickweed [14] = assay: as above; details: pre-emergence, 504 h, 16 lb/acre, about 3 weeks
In short: as §1

Corn [15] = assay: as above; details: Zea mays, pre-emergence, 504 h, 16 lb/acre, about 3 weeks
In short: as §1

Crabgrass [16] = assay: as above; details: Digitaria sanguinalis, pre-emergence, 504 h, 16 lb/acre, about 3 weeks
In short: as §1

Johnsongrass [17] = assay: as above; details: Sorghum halepense, pre-emergence, 504 h, 16 lb/acre, about 3 weeks
In short: as §1

Velvetleaf [18] = assay: as above; details: Abutilon theophrasti, pre-emergence, 504 h, 16 lb/acre, about 3 weeks
In short: as §1

Cucumber [19] = assay: Postemergence herbicidal activity, % control of plant growth; details: Cucumis sativus, post-emergence, 264 h, 8 lb/acre, about 11 days
In short: (§2)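 Around two weeks after seeds went in, the compound was sprayed at 8 pounds per acre over soil and developing plants. Results are visual estimates of percent growth control made approximately 11 days after spraying.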

Cheatgrass [20] = assay: as above; details: Bromus tectorum, post-emergence, 264 h, 8 lb/acre, about 11 days
In short: as §2

Curled Dock [21] = assay: as above; details: post-emergence, 264 h, 8 lb/acre, about 11 days
In short: as §2

Alfalfa [22] = assay: as above; details: Medicago sativa, post-emergence, 264 h, 8 lb/acre, about 11 days
In short: as §2

Yellow Rocket [23] = assay: as above; details: post-emergence, 264 h, 8 lb/acre, about 11 days
In short: as §2

Barnyard Grass [24] = assay: as above; details: Echinochloa crus-galli, post-emergence, 264 h, 8 lb/acre, about 11 days
In short: as §2

Lambsquarters [25] = assay: as above; details: Chenopodium album, post-emergence, 264 h, 8 lb/acre, about 11 days
In short: as §2

Nutgrass [26] = assay: as above; details: post-emergence, 264 h, 8 lb/acre, about 11 days
In short: as §2

Wild Oats [27] = assay: as above; details: Avena fatua, post-emergence, 264 h, 8 lb/acre, about 11 days
In short: as §2

Foxtail [28] = assay: as above; details: Setaria, post-emergence, 264 h, 8 lb/acre, about 11 days
In short: as §2

Pigweed [29] = assay: as above; details: Amaranthus retroflexus, post-emergence, 264 h, 8 lb/acre, about 11 days
In short: as §2

Snapbeans [30] = assay: as above; details: post-emergence, 264 h, 8 lb/acre, about 11 days
In short: as §2

Chickweed [31] = assay: as above; details: post-emergence, 264 h, 8 lb/acre, about 11 days
In short: as §2

Corn [32] = assay: as above; details: Zea mays, post-emergence, 264 h, 8 lb/acre, about 11 days
In short: as §2

Crabgrass [33] = assay: as above; details: Digitaria sanguinalis, post-emergence, 264 h, 8 lb/acre, about 11 days
In short: as §2

Johnsongrass [34] = assay: as above; details: Sorghum halepense, post-emergence, 264 h, 8 lb/acre, about 11 days
In short: as §2

Velvetleaf [35] = assay: as above; details: Abutilon theophrasti, post-emergence, 264 h, 8 lb/acre, about 11 days
In short: as §2

CC(C)n1c(=O)[nH]c2ncccc2c1=O [3-isopropyl-pyrido[2,3-d]pyrimidine-2,4(1H,3H)-dione]
herbicidal activity [1]: no appreciable herbicidal activity
order of herbicidal activity ([1]; in vivo): no appreciable activity

CCC(C)n1c(=O)[nH]c2cccnc2c1=O (stereo not drawn) [3-sec-butyl-pyrido[3,2-d] pyrimidine-2,4(1H,3H)-dione]
pest or weed control at 17933.6 g/ha (Cucumber [2]): 100%
pest or weed control at 17933.6 g/ha (Cheatgrass [3]): 100%
pest or weed control at 17933.6 g/ha (Curled Dock [4]): 100%
pest or weed control at 17933.6 g/ha (Alfalfa [5]): 100%
pest or weed control at 17933.6 g/ha (Yellow Rocket [6]): 100%
pest or weed control at 17933.6 g/ha (Barnyard Grass [7]): 100%
pest or weed control at 17933.6 g/ha (Lambsquarters [8]): 100%
pest or weed control at 17933.6 g/ha (Nutgrass [9]): 100%
pest or weed control at 17933.6 g/ha (Wild Oats [10]): 100%
pest or weed control at 17933.6 g/ha (Foxtail [11]): 100%
pest or weed control at 17933.6 g/ha (Pigweed [12]): 100%
pest or weed control at 17933.6 g/ha (Snapbeans [13]): 100%
pest or weed control at 17933.6 g/ha (Chickweed [14]): 100%
plant injury at 17933.6 g/ha (Corn [15]): 100%
pest or weed control at 17933.6 g/ha (Crabgrass [16]): 100%
pest or weed control at 17933.6 g/ha (Johnsongrass [17]): 100%
pest or weed control at 17933.6 g/ha (Velvetleaf [18]): 100%
pest or weed control at 8966.8 g/ha (Cucumber [19]): 100%
pest or weed control at 8966.8 g/ha (Cheatgrass [20]): 100%
pest or weed control at 8966.8 g/ha (Curled Dock [21]): 100%
pest or weed control at 8966.8 g/ha (Alfalfa [22]): 100%
pest or weed control at 8966.8 g/ha (Yellow Rocket [23]): 100%
pest or weed control at 8966.8 g/ha (Barnyard Grass [24]): 100%
pest or weed control at 8966.8 g/ha (Lambsquarters [25]): 100%
pest or weed control at 8966.8 g/ha (Nutgrass [26]): 100%
pest or weed control at 8966.8 g/ha (Wild Oats [27]): 100%
pest or weed control at 8966.8 g/ha (Foxtail [28]): 100%
pest or weed control at 8966.8 g/ha (Pigweed [29]): 100%
pest or weed control at 8966.8 g/ha (Snapbeans [30]): 100%
pest or weed control at 8966.8 g/ha (Chickweed [31]): 100%
plant injury at 8966.8 g/ha (Corn [32]): 90%
pest or weed control at 8966.8 g/ha (Crabgrass [33]): 100%
pest or weed control at 8966.8 g/ha (Johnsongrass [34]): 100%
pest or weed control at 8966.8 g/ha (Velvetleaf [35]): 100%
effective application rate ([1]; relative to 3-isopropyl-pyrido[3,2-d]pyrimidine-2,4(1H,3H)-dione, preemergence or postemergence): substantially the same application rates, e.g., as similar or salt solutions in water, are effective

CC(C)n1c(=O)[nH]c2ccncc2c1=O [3-isopropyl-pyrido[4,3-d]pyrimidine-2,4(1H,3H)-dione]
herbicidal activity [1]: no appreciable herbicidal activity

O=c1[nH]c2ncccc2c(=O)n1C1CCCCC1 [3-cyclohexyl-pyrido[2,3-d]pyrimidine-2,4-(1H,3H)-dione]
herbicidal activity [1]: no appreciable herbicidal activity
